Patent US20250179028A1, “ACRYLAMIDE COMPOUNDS” (NRG THERAPEUTICS LTD, priority 2022, published 2025)
≈ marks a conversion by molar mass, not a printed value. Like-named read-outs stand apart in the source and are kept apart here.

How the values were obtained:
mPTP [1] = assay: mPTP activity (Ca2+ retention) assay in isolated rat liver mitochondria; type: biochemical; details: for mPTP Rat liver pIC50: isolated rat liver mitochondria, average value from multiple experiments (n ≥ 2)
How it was run: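 Freshly isolated female Sprague Dawley rat liver mitochondria were energised with succinate and rotenone in pH 7.4 buffer with Fluo5N, then pre-incubated 10 min at RT with compound (30 μM to 1 nM final) before a 75 μM CaCl2 bolus. The IC50 used 10-min fluorescence, normalised to DMSO and 5 μM cyclosporin A.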

mPTP [2] = assay: mPTP activity assay in isolated rat brain mitochondria; type: biochemical; details: for mPTP Rat brain pIC50: isolated rat brain mitochondria
Experimental: mPTP activity was measured in brain mitochondria freshly isolated from female Sprague Dawley (250 to 300 gram) rats. Anaesthetised rats were perfused in-situ with ˜40 ml cold Dulbecco's Phosphate Buffered Saline (DPBS), then brains dissected and transferred into 30 ml Isolation Buffer (225 mM mannitol, 75 mM sucrose, 1 mM EGTA, adjusted to pH 7.4 with 1 M NaOH). The brain was minced using tweezers and a scalpel into ˜5 mm pieces then transferred into a 50 ml Potterton Dounce homogenization tube on ice containing 10 ml ice-cold isolation buffer (as above with addition of Complete Protease inhibitor; 1 tablet per 50 ml buffer).
Homogenisation was carried out using a […] pestle at 1800 rpm. The slurry was centrifuged at 2000 g for 10 min at 4° C., then the supernatant centrifuged at 12,000 g for 9 min. The pellet was resuspended with a dounce homogeniser in isolation buffer as above but with the addition of 0.02% digitonin, centrifuged at 12,000 g for 11 min and finally resuspended in 5 ml modified isolation buffer (as above but with EGTA reduced to 0.1 mM).
Test compounds were prepared in 384 well polypropylene assay plates as described above for the liver mitochondria assay. A stock mitochondria/Fluo5N assay solution was prepared in 5.6 ml assay buffer (120 mM mannitol, 40 mM MOPS, 5 mM KH2PO4, 60 mM KCl, 10 mM pyruvate, 2 mM malate, 2 mM MgCl2, 20 μM ADP, 1.26 μM oligomycin A, adjusted to pH 7.4) supplemented with Fluo5N pentapotassium salt (2 μM) and 1 ml mitochondria suspension, then transferred (15 μl) into the assay plate containing test compounds and incubated for 10 min at RT. Assay plates were then transferred to a FLIPR Tetra plate reader (Molecular Devices). Dye fluorescence was then measured every 3 sec for a total of 10 min. After 12 sec, a 2.5 μl bolus of Ca2+ (75 μM) was added from a source plate containing 675 μM CaCl2) in FLIPR assay buffer. IC50 values for test compounds were calculated using the fluorescence value collected at the 10 min timepoint with % inhibition calculated using the DMSO control and cyclosporin A values at […].

[3] = Hepatocyte clearance assay, rat; type: in vitro ADME; details: cryopreserved primary rat hepatocytes, average value from two experiments, read-out: Rat heps Clint
Experimental: (§1) In vitro clearance studies were performed in primary rat and human hepatocytes (BiolVT). Vials of cryopreserved rat or human hepatocytes were thawed in a 37° C. water bath for 2 min. Cells were transferred into thawing medium (Williams' Medium E containing 30% Percoll, 1×GlutaMAX-1, 15 mM HEPES, 5% fetal bovine serum (FBS), 4 μg/ml insulin, 1 μM dexamethasone), centrifuged at 100 g for 10 min then resuspended in culture medium (Leibovitz's L-15 Medium) at a concentration of 0.5×10^6 viable cells/mL (number of viable cells assessed using AO/PI staining). Hepatocytes (198 μL) were transferred into wells of a 96-well non-coated plate and placed in a 37° C. incubator for 10 min. Test compound solutions were prepared from 10 mM stocks in DMSO, diluted to 100 μM in 50% (v/v in water) acetonitrile. Test compound samples (2 μl) were added to each well of hepatocytes and incubated at 37° C. Samples (25 μl) were collected at t=0, 15, 30, […] and 120 min, mixed with 6 volumes (150 μl) of acetonitrile containing internal standard (100 nM alprazolam, 200 nM caffeine and 100 nM tolbutamide), vortexed for 5 min and centrifuged for 45 min at 3220 g. An aliquot of supernatant (100 μL) was diluted with 100 μL ultra-pure water, and the mixture was used for LC/MS/MS analysis. All incubations were performed in duplicate. Peak areas were determined from extracted ion chromatograms. The slope value, k, was determined by linear regression of the natural logarithm of the remaining percentage of the parent drug vs. incubation time curve. The in vitro half-life (in vitro t½) was determined from the slope value: in vitro t½=0.693/k. Conversion of the in vitro t½ (in min) into the in vitro intrinsic clearance (in vitro CLint, in μL/min/1×10^6 cells) was done using the following equation (mean of duplicate determinations):
(§2) [formula] • V=incubation volume (0.2 mL) • N=number of hepatocytes per well (0.1×10^6 cells).

[4] = Hepatocyte clearance assay, human; type: in vitro ADME; details: cryopreserved primary human hepatocytes, average value from two experiments, read-out: Human heps Clint
Experimental: as §1, §2

CYP2D6 = CYP2D6 (Homo sapiens (Human), UniProt P10635); assay: Cytochrome P450 CYP2D6 inhibition in human liver microsomes; type: in vitro ADME; details: probe dextromethorphan 2 µM (dextrorphan formation); 1 uM test compound, human liver microsomes; average value from two experiments; negative values = no effective inhibition
How it was run: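 Human liver microsomes (0.2 mg/mL) with 2 μM dextromethorphan in 100 mM PBS, test compound at 1 μM or 0.1-30 μM, 15 min preincubation then NADPH-started reaction for 20 min at 37° C, in duplicate. Dextrorphan formation by UPLC-MS/MS; IC50 from % decrease versus uninhibited control.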

[5] = PBS and FaSSIF solubility; type: physicochemical; details: kinetic from dmso stock
Experimental: Test compounds were prepared as 10 mM stocks in DMSO and 15 μl samples transferred in duplicate into 1.5 mL glass flat bottom vials (BioTech Solutions). Fasted state simulated intestinal fluid (FaSSIF) or PBS (pH 7.4) was added to each vial to final volume of 500 μl. One PTFE encapsulated stir stick (V&P Scientific) was placed in each vial before sealing with PTFE/SIL plugs (BioTech Solutions). Vials were shaken at 1100 rpm for 2 hr at 25° C. Samples were then filtered through MultiScreen Solvinert filter plates (Millipore) via vacuum filtration. Aliquots of filtrate (5 μl) plus 5 μl DMSO were diluted in 490 μl 50% acetonitrile in water containing internal standard. The filtrate was analysed and quantified against a standard of known concentration using LC-MS/MS. Solubility values of the test compound and control compound were calculated as follows: […]

[6] = fasted state simulated intestinal fluid (FaSSIF), fassif, Fasted state simulated intestinal fluid, 2 hr at 25° C., read-out: Solubility FaSSIF

Chain of CYP2D6 (P10635 whole entry): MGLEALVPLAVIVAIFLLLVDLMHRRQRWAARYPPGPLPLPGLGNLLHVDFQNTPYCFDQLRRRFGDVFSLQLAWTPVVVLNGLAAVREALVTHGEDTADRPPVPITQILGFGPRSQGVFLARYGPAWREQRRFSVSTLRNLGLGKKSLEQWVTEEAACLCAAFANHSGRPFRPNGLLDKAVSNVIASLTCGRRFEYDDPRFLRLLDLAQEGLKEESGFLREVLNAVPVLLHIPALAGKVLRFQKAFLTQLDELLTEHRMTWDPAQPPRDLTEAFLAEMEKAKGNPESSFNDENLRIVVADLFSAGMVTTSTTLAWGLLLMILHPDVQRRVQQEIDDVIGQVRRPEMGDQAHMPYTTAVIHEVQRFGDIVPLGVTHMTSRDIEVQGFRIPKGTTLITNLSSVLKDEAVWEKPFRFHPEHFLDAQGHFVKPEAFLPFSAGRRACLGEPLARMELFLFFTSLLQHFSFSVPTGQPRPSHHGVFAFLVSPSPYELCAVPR

Cc1c(F)cccc1NC(=O)/C=C/c1ccc2c(C#N)n[nH]c2c1 [Example 51, (E)-3-(3-cyano-1H-indazol-6-yl)-N-(3-fluoro-2-methylphenyl)acrylamide]
activity in the rat liver mitochondria assay (in words) (mPTP [1]): highest activity
mPTP Rat liver pIC50 (mPTP [1]): 7.9
activity in the rat brain mitochondria assay (in words) (mPTP [2]): highest activity
mPTP Rat brain pIC50 (mPTP [2]): 8.3
hepatocyte CLint at 1 µM [3]: 48.1 µL/min/1e6 cells
hepatocyte CLint at 1 µM [4]: 11 µL/min/1e6 cells

Cc1n[nH]c2cc(/C=C/C(=O)N[C@H]3c4ccccc4OC[C@@H]3C)ccc12 [Example 65c, (E)-3-(3-methyl-1H-indazol-6-yl)-N-((3R,4R)-3-methylchroman-4-yl)acrylamide]
mPTP Rat liver pIC50 (mPTP [1]): 7.7
mPTP Rat brain pIC50 (mPTP [2]): 7.8

Cc1n[nH]c2cc(/C=C/C(=O)N[C@H]3c4ccccc4C[C@@H]3OCC3COC3)ccc12 [Example 66, (E)-3-(3-methyl-1H-indazol-6-yl)-N-((1S,2S)-2-(oxetan-3-ylmethoxy)-2,3-dihydro-1H-inden-1-yl)acrylamide]
mPTP Rat liver pIC50 (mPTP [1]): 7.2
mPTP Rat brain pIC50 (mPTP [2]): 7.3
hepatocyte CLint at 1 µM [3]: 36.1 µL/min/1e6 cells
hepatocyte CLint at 1 µM [4]: 25.4 µL/min/1e6 cells

Cc1n[nH]c2cc(/C=C/C(=O)N[C@H]3c4ccccc4C[C@@H]3OCC3CC3)ccc12 [Example 67, (E)-N-((1S,2S)-2-(cyclopropylmethoxy)-2,3-dihydro-1H-inden-1-yl)-3-(3-methyl-1H-indazol-6-yl)acrylamide]
mPTP Rat liver pIC50 (mPTP [1]): 7.2
mPTP Rat brain pIC50 (mPTP [2]): 7.3
hepatocyte CLint at 1 µM [3]: 73.3 µL/min/1e6 cells
hepatocyte CLint at 1 µM [4]: 42.1 µL/min/1e6 cells

COc1n[nH]c2cc(/C=C/C(=O)N[C@H]3c4ccccc4C[C@@H]3OC)ccc12 [Example 71, (E)-3-(3-methoxy-1H-indazol-6-yl)-N-((1S,2S)-2-methoxy-2,3-dihydro-1H inden-1-yl)acrylamide]
mPTP Rat liver pIC50 (mPTP [1]): 7.0
inhibition at 20 min, 1 µM (CYP2D6): 7.4%
solubility at 2 h [5, 6]: 19.9 µM (≈ 7.25 µg/mL)
hepatocyte CLint at 1 µM [3]: 72 µL/min/1e6 cells
hepatocyte CLint at 1 µM [4]: 8.9 µL/min/1e6 cells

CO[C@H]1Cc2ccccc2[C@@H]1NC(=O)/C=C/c1ccc2c(C#N)n[nH]c2c1 [Example 74, (E)-3-(3-cyano-1H-indazol-6-yl)-N-((1S,2S)-2-methoxy-2,3-dihydro-1H-inden-1-yl)acrylamide]
mPTP Rat liver pIC50 (mPTP [1]): 8.0
mPTP Rat brain pIC50 (mPTP [2]): 8.0
inhibition at 20 min, 1 µM (CYP2D6): 7.5%
solubility at 2 h ([5]; aqueous buffer, PBS pH 7.4, 2 hr at 25° C., read-out: Solubility PBS (pH 7.4)): 1.2 µM (≈ 0.43 µg/mL)

COc1cc(C)c(NC(=O)/C=C/c2ccc3c(C)n[nH]c3c2)c(C)n1 [Example 91, (2E)-N-(6-methoxy-2,4-dimethylpyridin-3-yl)-3-(3-methyl-1H-indazol-6-yl)prop-2-enamide]
mPTP Rat liver pIC50 (mPTP [1]): 6.2
mPTP Rat brain pIC50 (mPTP [2]): 7.2
solubility at 2 h [5, 6]: 86 µM (≈ 28.9 µg/mL)

COc1cc(C)c(NC(=O)/C=C/c2ccc3c(F)n[nH]c3c2)c(C)n1 [Example 93, (2E)-3-(3-fluoro-1H-indazol-6-yl)-N-(6-methoxy-2,4-dimethylpyridin-3-yl) prop-2-enamide]
mPTP Rat liver pIC50 (mPTP [1]): 7.6
mPTP Rat brain pIC50 (mPTP [2]): 6.8
solubility at 2 h [5, 6]: 151 µM (≈ 51.4 µg/mL)

COc1cc(C)c(NC(=O)/C=C/c2ccc3c(C#N)n[nH]c3c2)c(C)n1 [Example 94, (2E)-3-(3-cyano-1H-indazol-6-yl)-N-(6-methoxy-2,4-dimethylpyridin-3-yl)prop-2-enamide]
mPTP Rat liver pIC50 (mPTP [1]): 7.5
mPTP Rat brain pIC50 (mPTP [2]): 7.4
solubility at 2 h [5, 6]: 43 µM (≈ 14.9 µg/mL)

COc1cc(C)c(NC(=O)/C=C/c2cc3[nH]nc(F)c3cc2F)c(C)n1 [Example 97, (2E)-3-(3,5-difluoro-1H-indazol-6-yl)-N-(6-methoxy-2,4-dimethylpyridin-3-yl)prop-2-enamide]
mPTP Rat liver pIC50 (mPTP [1]): 7.5
mPTP Rat brain pIC50 (mPTP [2]): 7.5
solubility at 2 h [5, 6]: 35 µM (≈ 12.5 µg/mL)

Cc1ncc(F)c(C)c1NC(=O)/C=C/c1cc2[nH]nc(C)c2cc1F [Example 107, (2E)-N-(5-fluoro-2,4-dimethylpyridin-3-yl)-3-(5-fluoro-3-methyl-1H-indazol-6-yl)prop-2-enamide]
mPTP Rat liver pIC50 (mPTP [1]): 8.1
mPTP Rat brain pIC50 (mPTP [2]): 8.0

Cc1ncc(F)c(C)c1NC(=O)/C=C/c1ccc2c(F)n[nH]c2c1 [Example 108, (2E)-3-(3-fluoro-1H-indazol-6-yl)-N-(5-fluoro-2,4-dimethylpyridin-3-yl)prop-2-enamide]
mPTP Rat liver pIC50 (mPTP [1]): 7.8
mPTP Rat brain pIC50 (mPTP [2]): 7.6

Cc1ncc(F)c(C)c1NC(=O)/C=C/c1cc2[nH]nc(F)c2cc1F [Example 111, (2E)-3-(3,5-difluoro-1H-indazol-6-yl)-N-(5-fluoro-2,4-dimethylpyridin-3-yl)prop-2-enamide]
mPTP Rat liver pIC50 (mPTP [1]): 8.1
mPTP Rat brain pIC50 (mPTP [2]): 8.1

Cc1ncc(F)c(C)c1NC(=O)/C=C/c1ccc2c(Cl)n[nH]c2c1 [Example 112, (2E)-3-(3-chloro-1H-indazol-6-yl)-N-(5-fluoro-2,4-dimethylpyridin-3-yl)prop-2-enamide]
mPTP Rat liver pIC50 (mPTP [1]): 8.2
mPTP Rat brain pIC50 (mPTP [2]): 8.2

Cc1ncccc1NC(=O)/C=C/c1ccc2c(C)n[nH]c2c1 [Example 115, (2E)-3-(3-methyl-1H-indazol-6-yl)-N-(2-methylpyridin-3-yl)prop-2-enamide]
mPTP Rat liver pIC50 (mPTP [1]): 6.2
mPTP Rat brain pIC50 (mPTP [2]): 5.7

Cc1ccnc(C)c1NC(=O)/C=C/c1ccc2c(C)n[nH]c2c1 [Example 116, (2E)-N-(2,4-dimethylpyridin-3-yl)-3-(3-methyl-1H-indazol-6-yl)prop-2-enamide]
mPTP Rat liver pIC50 (mPTP [1]): 6.5
mPTP Rat brain pIC50 (mPTP [2]): 6.2

COCc1c(F)cnc(C)c1NC(=O)/C=C/c1ccc2c(C)n[nH]c2c1 [Example 117, (2E)-N-[5-fluoro-4-(methoxymethyl)-2-methylpyridin-3-yl]-3-(3-methyl-1H-indazol-6-yl)prop-2-enamide]
mPTP Rat liver pIC50 (mPTP [1]): 6.6
mPTP Rat brain pIC50 (mPTP [2]): 5.9
solubility at 2 h [5, 6]: 86 µM (≈ 30.5 µg/mL)
hepatocyte CLint at 1 µM [4]: 3 µL/min/1e6 cells
